Laboratory results from patent US20040161861A1, “Glycoconjugate sensors” (priority 2002, published 2004).

Key:
Details in all cases: colorimetric ELISA, OD at 405 nm, FIG. 5
[1] = system: B. thuringiensis spores; assay type: binding, Bacillus thuringiensis
[2] = system: B. cereus spores; assay type: binding, Bacillus cereus
[3] = system: B. subtilis spores; assay type: binding, Bacillus subtilis
[4] = system: B. pumilus spores; assay type: binding

## Fuc α1-3 GlcNAc β-PAA-flu
[1]
  binding match between spores and immobilized glycoconjugate: bound

## Fuc α 1-4 GlcNAc β-PAA-flu
[1]
  binding match between spores and immobilized glycoconjugate: bound

## Gal α 1-3 GalNAc α-PAA-flu
[2]
  binding match between spores and immobilized glycoconjugate: bound

## Gal β1-3 Gal β-PAA-flu
[3]
  binding match between spores and immobilized glycoconjugate: bound

## Gal β1-3 GalNAc β-PAA-flu
[4]
  binding match between spores and immobilized glycoconjugate: bound

## Gal β1-3GalNAc α-PAA-flu
[4]
  binding match between spores and immobilized glycoconjugate: bound

## Gal β 1-4 Glc β-PAA-flu
[2]
  binding match between spores and immobilized glycoconjugate: bound

## GlcNAc β 1-4 GlcNAc β-PAA-flu
[3]
  binding match between spores and immobilized glycoconjugate: bound
